Laboratory results reported in ChEMBL document CHEMBL3045001, “Synthesis and evaluation of analgesic, anti-inflammatory, and anticancer activities of new pyrazole-3(5)-carboxylic acid derivatives” (Med Chem Res, 2013).

Key:
Raji [1] = test: Anticancer activity against Homo sapiens (human) Raji cells assessed as cell viability at 50 uM after 48 hr by MTT assay (reference value: 100 +/-4.26%); assay type: functional; details: read-out: Activity
MCF7 [2] = test: Anticancer activity against Homo sapiens (human) MCF7 cells assessed as cell viability at 50 uM after 48 hr by MTT assay (100 +/-5.08%); assay type: functional; details: MCF7, 48 h, read-out: Activity
MDA-MB-231 [3] = test: Anticancer activity against Homo sapiens (human) estrogen-independent MDA-MB-231 cells assessed as cell viability at 50 uM after 24 hr by MTT assay (reference value: 100 +/-7.08%); assay type: functional; details: MDA-MB-231, 24 h, read-out: Activity
Mus musculus [4] = test: Anti-inflammatory activity in carrageenan-induced Mus musculus Swiss albino (mouse) paw edema model assessed as inhibition of paw edema at 100 mg/kg, sc administered 30 min prior to carrageenan injection measured after 90 min; assay type: functional; details: route subcutaneous
HeLa [5] = test: Anticancer activity against Homo sapiens (human) HeLa cells assessed as cell viability at 50 uM after 48 hr by MTT assay (reference value: 100 +/-3.8%); assay type: functional; details: read-out: Activity
MCF7 [6] = test: Anticancer activity against Homo sapiens (human) MCF7 cells assessed as cell viability at 50 uM after 24 hr by MTT assay (reference value: 100 +/-2.74%); assay type: functional; details: MCF7, 24 h, read-out: Activity
Raji [7] = test: Anticancer activity against Homo sapiens (human) Raji cells assessed as cell viability at 50 uM after 24 hr by MTT assay (reference value: 100 +/-5.02%); assay type: functional; details: read-out: Activity
Mus musculus [8] = test: Analgesic activity in Mus musculus Swiss albino (mouse) assessed as inhibition of p-benzoquinone-induced abdominal writhing at 100 mg/kg, sc administered 30 min prior to PBQ injection measured after 5 min for 15 min; assay type: functional, Abdomen; parameters: scale not given: the % may be the effect or the level left; details: route subcutaneous
Mus musculus [9] = test: Anti-inflammatory activity in carrageenan-induced Mus musculus Swiss albino (mouse) paw edema model assessed as paw swelling at 100 mg/kg, sc administered 30 min prior to carrageenan injection measured after 360 min (reference value: 77.0 +/-3.0 x10'-2 mm); assay type: functional; details: route subcutaneous
HL-60 [10] = test: Anticancer activity against Homo sapiens (human) HL60 cells assessed as cell viability at 50 uM after 48 hr by MTT assay (reference value: 100 +/-8.41%); assay type: functional; details: HL-60, 48 h, read-out: Activity
MDA-MB-231 [11] = test: Anticancer activity against Homo sapiens (human) estrogen-independent MDA-MB-231 cells assessed as cell viability at 50 uM after 48 hr by MTT assay (reference value: 100 +/-3.71%); assay type: functional; details: MDA-MB-231, 48 h, read-out: Activity
Mus musculus [12] = organism: Mus musculus; test: Acute toxicity against Mus musculus Swiss albino (mouse) assessed as morbidity after 48 hr; assay type: organism-based; details: in vivo
HeLa [13] = test: Anticancer activity against Homo sapiens (human) HeLa cells assessed as inhibition of cell viability by MTT assay; assay type: functional, cell-based
HL-60 [14] = test: Anticancer activity against Homo sapiens (human) HL60 cells assessed as cell viability at 50 uM after 24 hr by MTT assay (reference value: 100 +/-3.55%); assay type: functional; details: HL-60, 24 h, read-out: Activity
Mus musculus [15] = test: Anti-inflammatory activity in carrageenan-induced Mus musculus Swiss albino (mouse) paw edema model assessed as inhibition of paw edema at 100 mg/kg, sc administered 30 min prior to carrageenan injection measured after 360 min; assay type: functional; details: route subcutaneous
Mus musculus [16] = test: Anti-inflammatory activity in carrageenan-induced Mus musculus Swiss albino (mouse) paw edema model assessed as paw swelling at 100 mg/kg, sc administered 30 min prior to carrageenan injection measured after 90 min (reference value: 38.0 +/-2.0 x10'-2 mm); assay type: functional; details: route subcutaneous
HeLa [17] = test: Anticancer activity against Homo sapiens (human) HeLa cells assessed as cell viability at 50 uM after 24 hr by MTT assay (reference value: 100 +/-4.13%); assay type: functional; details: read-out: Activity
Mus musculus [18] = organism: Mus musculus; test: Acute toxicity against Mus musculus Swiss albino (mouse) assessed as mortality after 48 hr; assay type: organism-based; details: in vivo
Mus musculus [19] = test: Anti-inflammatory activity in carrageenan-induced Mus musculus Swiss albino (mouse) paw edema model assessed as paw swelling at 100 mg/kg, sc administered 30 min prior to carrageenan injection measured after 180 min (reference value: 51.0 +/-3.0 x10'-2 mm); assay type: functional; details: route subcutaneous
Mus musculus [20] = test: Anti-inflammatory activity in carrageenan-induced Mus musculus Swiss albino (mouse) paw edema model assessed as inhibition of paw edema at 100 mg/kg, sc administered 30 min prior to carrageenan injection measured after 180 min; assay type: functional; details: route subcutaneous
Mus musculus [21] = test: Anti-inflammatory activity in carrageenan-induced Mus musculus Swiss albino (mouse) paw edema model assessed as paw swelling at 100 mg/kg, sc administered 30 min prior to carrageenan injection measured after 270 min (rvb = 75.0 +/-3.0 x10'-2 mm); assay type: functional; details: route subcutaneous
Mus musculus [22] = test: Anti-inflammatory activity in carrageenan-induced Mus musculus Swiss albino (mouse) paw edema model assessed as inhibition of paw edema at 100 mg/kg, sc administered 30 min prior to carrageenan injection measured after 270 min; assay type: functional; details: route subcutaneous
Mus musculus [23] = test: Anti-inflammatory activity in carrageenan-induced Mus musculus Swiss albino (mouse) paw edema model assessed as inhibition of paw edema at 10 mg/kg, sc administered 30 min prior to carrageenan injection measured after 90 min; assay type: functional; details: route subcutaneous
Mus musculus [24] = test: Anti-inflammatory activity in carrageenan-induced Mus musculus Swiss albino (mouse) paw edema model assessed as paw swelling at 10 mg/kg, sc administered 30 min prior to carrageenan injection measured after 180 min (reference value: 51.0 +/-3.0 x10'-2 mm); assay type: functional; details: route subcutaneous
Mus musculus [25] = test: Anti-inflammatory activity in carrageenan-induced Mus musculus Swiss albino (mouse) paw edema model assessed as paw swelling at 10 mg/kg, sc administered 30 min prior to carrageenan injection measured after 270 min (reference value: 75.0 +/-3.0 x10'-2 mm); assay type: functional; details: route subcutaneous
Mus musculus [26] = test: Anti-inflammatory activity in carrageenan-induced Mus musculus Swiss albino (mouse) paw edema model assessed as paw swelling at 10 mg/kg, sc administered 30 min prior to carrageenan injection measured after 90 min (reference value: 38.0 +/-2.0 x10'-2 mm); assay type: functional; details: route subcutaneous
Mus musculus [27] = test: Anti-inflammatory activity in carrageenan-induced Mus musculus Swiss albino (mouse) paw edema model assessed as inhibition of paw edema at 10 mg/kg, sc administered 30 min prior to carrageenan injection measured after 180 min; assay type: functional; details: route subcutaneous
Mus musculus [28] = test: Anti-inflammatory activity in carrageenan-induced Mus musculus Swiss albino (mouse) paw edema model assessed as inhibition of paw edema at 10 mg/kg, sc administered 30 min prior to carrageenan injection measured after 360 min; assay type: functional; details: route subcutaneous
Mus musculus [29] = test: Anti-inflammatory activity in carrageenan-induced Mus musculus Swiss albino (mouse) paw edema model assessed as paw swelling at 10 mg/kg, sc administered 30 min prior to carrageenan injection measured after 360 min (reference value: 77.0 +/-3.0 x10'-2 mm); assay type: functional; details: route subcutaneous
Mus musculus [30] = test: Anti-inflammatory activity in carrageenan-induced Mus musculus Swiss albino (mouse) paw edema model assessed as inhibition of paw edema at 10 mg/kg, sc administered 30 min prior to carrageenan injection measured after 270 min; assay type: functional; details: route subcutaneous
HL-60 [31] = test: Anticancer activity against Homo sapiens (human) HL60 cells assessed as inhibition of cell viability by MTT assay; assay type: functional, cell-based

SMILES	viability at 50 µM (Raji [1]) [%]	viability at 50 µM (MCF7 [2]) [%]	viability at 50 µM (MDA-MB-231 [3]) [%]	inhibition in vivo at 100 mg/kg (Mus musculus [4]) [%]	viability at 50 µM (HeLa [5]) [%]	viability at 50 µM (MCF7 [6]) [%]	viability at 50 µM (Raji [7]) [%]	Activity (Mus musculus [8]) [%]	Activity (Mus musculus [9]) [×10⁻² mm]	viability at 50 µM (HL-60 [10]) [%]	viability at 50 µM (MDA-MB-231 [11]) [%]	Activity (Mus musculus [12])	viability at 50 µM (HL-60 [14]) [%]	inhibition in vivo at 100 mg/kg (Mus musculus [15]) [%]	Activity (Mus musculus [16]) [×10⁻² mm]	viability at 50 µM (HeLa [17]) [%]	Activity (Mus musculus [18])	Activity (Mus musculus [19]) [×10⁻² mm]	inhibition in vivo at 100 mg/kg (Mus musculus [20]) [%]	Activity (Mus musculus [21]) [×10⁻² mm]	other results
Cc1ccc(-c2cc(C(=O)Oc3ccc(-n4ccnc4)cc3)n(Cc3ccccc3)n2)cc1	106	52.4	33.1	6.6	33.9	67.6	96.5	14.9	62	121	24.4	Non-toxic	108	18.8	35	36.7	Non-toxic	43	15.4	61.6	IC50 (HeLa [13]): 30.4 µM; inhibition in vivo at 100 mg/kg (Mus musculus [22]): 19.2%
COc1ccc2c(c1)c(CC(=O)O)c(C)n2C(=O)c1ccc(Cl)cc1 [INDOMETHACIN]																					inhibition in vivo at 10 mg/kg (Mus musculus [23]): 15.5%; Activity (Mus musculus [24]): 35 ×10⁻² mm; Activity (Mus musculus [25]): 41 ×10⁻² mm; Activity (Mus musculus [26]): 32 ×10⁻² mm; inhibition in vivo at 10 mg/kg (Mus musculus [27]): 31.7%; inhibition in vivo at 10 mg/kg (Mus musculus [28]): 45.7%; Activity (Mus musculus [29]): 42 ×10⁻² mm; inhibition in vivo at 10 mg/kg (Mus musculus [30]): 45.6%
Cc1ccc(-c2cc(C(=O)N3CCN(Cc4ccc(C(C)C)cc4)CC3)nn2Cc2ccccc2)cc1	29.6	56.7	67.2	8.9	34.5	51.4	44.4	59.2	28	15.5	41.1	Non-toxic	11.9	63.4	34	52.5	Non-toxic	28	46.3	31	IC50 (HL-60 [31]): 24.4 µM; IC50 (HeLa [13]): 30.5 µM; inhibition in vivo at 100 mg/kg (Mus musculus [22]): 58.9%
Cc1ccc(-c2cc(C(=O)Oc3ccc(C(C)C)cc3)nn2Cc2ccccc2)cc1	97	82.6	106	27.4	54.6	79.6	90.1	45.7	40	83.6	66.2	Non-toxic	120	47.8	27	79.6	Non-toxic	42	18.7	37	inhibition in vivo at 100 mg/kg (Mus musculus [22]): 50.4%
Cc1ccc(-c2cc(C(=O)Oc3ccc(C(C)(C)C)cc3)nn2Cc2ccccc2)cc1	95.3	92.4	93.7	26	62.1	90.9	111	73.4	32	69.7	70.5	Non-toxic	134	58.7	28	118	Non-toxic	37	28.5	34	inhibition in vivo at 100 mg/kg (Mus musculus [22]): 54%
